Assay results reported in ChEMBL document CHEMBL1135945, “CoMFA and HQSAR of acylhydrazide cruzain inhibitors” (Bioorg Med Chem Lett, 2002).

Molecular target: Cruzipain (Trypanosoma cruzi, UniProt P25779)
Test: Inhibition of cruzain, the major cysteine protease from Trypanosoma cruzi

Sequence of Cruzipain (P25779 whole entry): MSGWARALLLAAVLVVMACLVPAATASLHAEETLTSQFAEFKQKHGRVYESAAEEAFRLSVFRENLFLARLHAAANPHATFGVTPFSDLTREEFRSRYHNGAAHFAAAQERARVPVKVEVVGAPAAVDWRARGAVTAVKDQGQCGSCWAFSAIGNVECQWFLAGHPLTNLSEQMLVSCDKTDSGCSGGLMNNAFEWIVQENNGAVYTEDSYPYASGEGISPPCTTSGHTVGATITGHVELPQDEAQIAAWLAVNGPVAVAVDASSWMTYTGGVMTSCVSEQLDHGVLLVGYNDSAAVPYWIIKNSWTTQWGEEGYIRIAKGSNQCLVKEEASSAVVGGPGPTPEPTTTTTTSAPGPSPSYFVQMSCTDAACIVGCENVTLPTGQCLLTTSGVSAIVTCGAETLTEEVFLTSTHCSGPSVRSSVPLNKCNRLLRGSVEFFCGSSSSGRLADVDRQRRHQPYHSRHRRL

IC50	Structure (SMILES)
166 µM	COc1ccc(C(=O)N/N=C/c2ccoc2)c(OC)c1
20 µM	O=C(N/N=C/c1ccc(-c2ccccc2[N+](=O)[O-])o1)c1ccccc1O
6.03 µM	CN(C)c1ccc(/C=N/NC(=O)c2ccnc3ccccc23)c2ccccc12
30.2 µM	O=C(N/N=C/c1ccnc2ccccc12)c1ccccc1O
331 µM	O=C(N/N=C/c1ccc(C(=O)O)o1)c1cccc([N+](=O)[O-])c1
100 µM	O=C(N/N=C/c1ccc(-c2ccc(Cl)cc2)o1)c1ccccc1O
6.03 µM	O=C(N/N=C/c1ccc([N+](=O)[O-])o1)c1cc2ccccc2cc1O
0.603 µM	O=C(N/N=C/c1ccc(-c2ccccc2Cl)o1)c1cc2ccccc2cc1O
0.2 µM	COc1ccc2cc(O)c(C(=O)N/N=C/c3ccc(-c4cc(C(F)(F)F)nn4C)s3)cc2c1
6.03 µM	O=C(N/N=C/c1ccc(-c2cccc([N+](=O)[O-])c2)o1)c1ccc2ccccc2c1
16.2 µM	CN(C)c1ccc(/C=N/NC(=O)c2ccc(O)c(O)c2)c2ccccc12
0.501 µM	CN(C)c1ccc(/C=N/NC(=O)c2ccccc2)c2ccccc12
10 µM	COc1cc(OC)cc(C(=O)N/N=C/c2ccc(C(=O)O)o2)c1
10 µM	CSc1ccc(/C=N/NC(=O)c2cccc(C)c2O)s1
30.2 µM	O=C(N/N=C/c1cc(Br)cs1)c1cnc2ccccc2c1

Structure (SMILES)	IC50
O=C(N/N=C/c1ccc([N+](=O)[O-])o1)c1cccc([N+](=O)[O-])c1	5.01 µM
